Experimental data from patent US20240246964A1 (Arbutus Biopharma Corporation, priority 2021, published 2024).

What was measured:
[1] = molecular target: PD-L1 His protein / PD-1 Fc protein (Homo sapiens (Human), UniProt Q9NZQ7); test: HTRF Assay (PD-1/PD-L1 interaction); format: binding; settings: PD-L1 His 6 nM, PD-1 Fc 6 nM
human PD-L1 = human PD-L1 (Homo sapiens (Human), UniProt Q9NZQ7); test: T cell activation luciferase reporter cell culture system (T Cell Activation Assay); format: cell-based; settings: luciferase reporter assay; PD-L1 aAPC/CHO-K1 cells with PD-1 effector Jurkat T cells
human PD-L1, sequence (Q9NZQ7 19-290): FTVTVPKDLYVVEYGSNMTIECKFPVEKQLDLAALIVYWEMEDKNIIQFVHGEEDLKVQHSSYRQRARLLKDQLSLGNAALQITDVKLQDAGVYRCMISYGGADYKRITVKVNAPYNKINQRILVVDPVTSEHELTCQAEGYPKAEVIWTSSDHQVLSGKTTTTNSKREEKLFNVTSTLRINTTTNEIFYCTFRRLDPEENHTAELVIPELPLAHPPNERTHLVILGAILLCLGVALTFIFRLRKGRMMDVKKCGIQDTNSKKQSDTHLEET

PD-L1 His protein / PD-1 Fc protein, sequence (Q9NZQ7 19-238): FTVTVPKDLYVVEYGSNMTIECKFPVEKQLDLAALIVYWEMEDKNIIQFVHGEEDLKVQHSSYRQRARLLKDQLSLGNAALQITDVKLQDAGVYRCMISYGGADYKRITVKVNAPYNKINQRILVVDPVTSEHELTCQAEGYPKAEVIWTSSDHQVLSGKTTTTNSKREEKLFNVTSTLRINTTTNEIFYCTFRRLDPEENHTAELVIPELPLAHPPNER

Compound | IC50 [1] | EC50 (human PD-L1)
COc1nc(-c2cccc(-c3ccnc(-c4cc5c(OC)nc(CN6CC(C)(O)C6)nn5c4)c3Cl)c2Cl)ccc1CNC[C@@H]1CCC(=O)N1 [Example 697, (S)-5-((((6-(2-Chloro-3-(3-chloro-2-(2-((3-hydroxy-3-methylazetidin-1-yl)methyl)-4-methoxypyrrolo[2,1-f][1,2,4]triazin-6-yl)pyridin-4-yl)phenyl)-2-methoxypyridin-3-yl)methyl)amino)methyl)pyrrolidin-2-one] | 6.26 nM | 120 nM
COc1cc(-c2nccc(-c3cccc(-c4ccc5c(OC)c(CNC6CCN(C(C)=O)CC6)cc(Cl)c5n4)c3Cl)c2Cl)ccc1CNC[C@@H]1CCC(=O)N1 [Example 241, (S)-5-(((4-(4-(3-(6-(((1-Acetylpiperidin-4-yl)amino)methyl)-8-chloro-5-methoxyquinolin-2-yl)-2-chlorophenyl)-3-chloropyridin-2-yl)-2-methoxybenzyl)amino)methyl)pyrrolidin-2-one] | 14.3 nM | ≥ 10000 nM
COc1cc(-c2cccc(-c3ccnc(-c4cnc(CNC5CCOCC5)c(OC)c4)c3Cl)c2Cl)cnc1CNC1CCOCC1 [Compound 570, N-((5-(2-Chloro-3-(3-chloro-5′-methoxy-6′-(((tetrahydro-2H-pyran-4-yl)amino)methyl)-[2,3′-bipyridin]-4-yl)phenyl)-3-methoxypyridin-2-yl)methyl)tetrahydro-2H-pyran-4-amine] | 18.5 nM | ≥ 10000 nM
COc1cc(-c2nccc(-c3cccc(-c4cc(F)c(CNC[C@@H]5CCC(=O)N5)c(OC)n4)c3Cl)c2Cl)cc2c1CN(C[C@@H](C)O)CC2 [Compound 131, (S)-5-((((6-(2-chloro-3-(3-chloro-2-(2-((R)-2-hydroxypropyl)-8-methoxy-1,2,3,4-tetrahydroisoquinolin-6-yl)pyridin-4-yl)phenyl)-4-fluoro-2-methoxypyridin-3-yl)methyl)amino)methyl)pyrrolidin-2-one] | 0.662 nM | 35.4 nM
COc1cc(-c2nccc(-c3cccc(-c4ccc(CN5CC6(COC6)C5)c(OC)n4)c3C(F)(F)F)c2Cl)ccc1CN1CC2(COC2)C1 [Example 578, 6-(4-(4-(3-(5-((2-Oxa-6-azaspiro[3.3]heptan-6-yl)methyl)-6-methoxypyridin-2-yl)-2-(trifluoromethyl)phenyl)-3-chloropyridin-2-yl)-2-methoxybenzyl)-2-oxa-6-azaspiro[3.3]heptane] | 70.3 nM | ≥ 10000 nM
COc1cc(CNC2CCN(C(C)=O)CC2)cc(-c2nccc(-c3cccc(-c4ccc(CNC5CCN(C(C)=O)CC5)c(OC)n4)c3Cl)c2Cl)c1 [Compound 154, 1-(4-(((6-(3-(2-(3-(((1-acetylpiperidin-4-yl)amino)methyl)-5-methoxyphenyl)-3-chloropyridin-4-yl)-2-chlorophenyl)-2-methoxypyridin-3-yl)methyl)amino)piperidin-1-yl)ethan-1-one] | 8.73 nM | ≥ 10000 nM
COc1cc(-c2nccc(-c3cccc(-c4ccc(CN5CC6(C5)CN(C(C)=O)C6)c(OC)n4)c3C)c2C)ccc1CN1CC2(C1)CN(C(C)=O)C2 [Example 416, 1-(6-((6-(3-(2-(4-((6-Acetyl-2,6-diazaspiro[3.3]heptan-2-yl)methyl)-3-methoxyphenyl)-3-methylpyridin-4-yl)-2-methylphenyl)-2-methoxypyridin-3-yl)methyl)-2,6-diazaspiro[3.3]heptan-2-yl)ethan-1-one] | 6.6 nM | ≥ 10000 nM
COc1nc(-c2cccc(-c3ccnc(-c4cc(OC)c5nc(CN[C@H]6CC[C@H](O)CC6)nn5c4)c3Cl)c2Cl)ccc1CNC1CCN(C(C)=O)CC1 [Example 595, 1-(4-(((6-(2-Chloro-3-(3-chloro-2-(2-((((1r,4r)-4-hydroxycyclohexyl)amino)methyl)-8-methoxy-[1,2,4]triazolo[1,5-a]pyridin-6-yl)pyridin-4-yl)phenyl)-2-methoxypyridin-3-yl)methyl)amino)piperidin-1-yl)ethan-1-one] | 0.38 nM | 211 nM
COc1nc(-c2ccnc(-c3cccc(NC(=O)c4cn(C)c(=O)n(C)c4=O)c3Cl)c2Cl)ccc1CNC[C@H](C)O [Compound 745, (S)—N-(2-Chloro-3-(3′-chloro-5-(((2-hydroxypropyl)amino)methyl)-6-methoxy-[2,4′-bipyridin]-2′-yl)phenyl)-1,3-dimethyl-2,4-dioxo-1,2,3,4-tetrahydropyrimidine-5-carboxamide] | 0.31 nM | 372 nM
COc1nc(-c2cccc(-c3ccnc(-c4ccc5c(c4)CNC5)c3Cl)c2Cl)ccc1CNC[C@@H]1CCC(=O)N1 [Compound 116, (S)-5-((((6-(2-chloro-3-(3-chloro-2-(isoindolin-5-yl)pyridin-4-yl)phenyl)-2-methoxypyridin-3-yl)methyl)amino)methyl)pyrrolidin-2-one] | 0.9 nM | 64.9 nM
COc1nc(-c2cccc(-c3ccnc(-c4cc(OC)c5nc(CNC6CCN(C(C)=O)CC6)cn5c4)c3Cl)c2Cl)ccc1CNC[C@@H]1CCC(=O)N1 [Example 318, (S)-5-((((6-(3-(2-(2-(((1-Acetylpiperidin-4-yl)amino)methyl)-8-methoxyimidazo[1,2-a]pyridin-6-yl)-3-chloropyridin-4-yl)-2-chlorophenyl)-2-methoxypyridin-3-yl)methyl)amino)methyl)pyrrolidin-2-one] | 1.8 nM | 31.5 nM
COc1cc(-c2ncnc(-c3cccc(-c4ccc(CN5CC6(C5)CN(C(C)=O)C6)c(OC)n4)c3Cl)c2C)ccc1CN1CC2(C1)CN(C(C)=O)C2 [Example 538, 1-(6-((6-(3-(6-(4-((6-Acetyl-2,6-diazaspiro[3.3]heptan-2-yl)methyl)-3-methoxyphenyl)-5-methylpyrimidin-4-yl)-2-chlorophenyl)-2-methoxypyridin-3-yl)methyl)-2,6-diazaspiro[3.3]heptan-2-yl)ethan-1-one] | 2.59 nM | ≥ 10000 nM
COc1cc(-c2nccc(-c3cccc(-c4ccc(CNC5CC6(CCNC6=O)C5)c(OC)n4)c3Cl)c2Cl)ccc1CNC1CC2(CCNC2=O)C1 (centres unmarked) [Example 302, 2-((4-(3-Chloro-4-(2-chloro-3-(6-methoxy-5-(((5-oxo-6-azaspiro[3.4]octan-2-yl)amino)methyl)pyridin-2-yl)phenyl)pyridin-2-yl)-2-methoxybenzyl)amino)-6-azaspiro[3.4]octan-5-one] | 1.11 nM | 23.5 nM
COc1nc(-c2cccc(-c3nccc(-c4ccc(CNC5CCN(C(C)=O)CC5)c(OC)n4)c3Cl)c2Cl)ccc1CN1CCC(O)CC1 [Example 774, 1-(4-(((3′-Chloro-2′-(2-chloro-3-(5-((4-hydroxypiperidin-1-yl)methyl)-6-methoxypyridin-2-yl)phenyl)-6-methoxy-[2,4′-bipyridin]-5-yl)methyl)amino)piperidin-1-yl)ethan-1-one] | 1.46 nM | 13 nM
COc1cc(-c2nccc(-c3cccc(-c4ccc(CNCCNC(C)=O)c(OC)n4)c3Cl)c2Cl)ccc1CNCCNC(C)=O | 1.39 nM | 70.2 nM
COc1cc(-c2nccc(-c3cccc(-c4ccc5c(OC)c(CNC[C@H](C)O)cc(Cl)c5n4)c3Cl)c2Cl)ccc1CNC[C@@H]1CCC(=O)N1 [Compound 206, (S)-5-(((4-(3-chloro-4-(2-chloro-3-(8-chloro-6-((((S)-2-hydroxypropyl)amino)methyl)-5-methoxyquinolin-2-yl)phenyl)pyridin-2-yl)-2-methoxybenzyl)amino)methyl)pyrrolidin-2-one] | 0.856 nM | 182 nM
